How the values were obtained:
[1] = acute toxicity, subcutaneous injection; format: in vivo; conditions: 1000 mg/kg and 2000 mg/kg, injected subcutaneously, Swiss mice
Excerpt: The acute toxicity of the compound in laboratory animals has been evaluated.

[2] = system: Gram-positive bacteria; assay: minimum inhibitory concentration (MIC) determination; format: cell-based; conditions: wide range of Gram-positive bacteria including enterococci and resistant clinical isolates; MIC values are in Table II (image)
[3] = system: Staphylococcus aureus E 710 (Methicillin resistant); assay: in vivo antibacterial protection study in experimentally infected mice; conditions: laboratory mice experimentally infected with Staphylococcus aureus E 710 (Methicillin resistant)
Excerpt: "In vivo" antibacterial protection studies

[4] = acute toxicity, intravenous injection, rats; format: in vivo; conditions: Wistar rats
[5] = acute toxicity, intravenous injection, mice; format: in vivo; conditions: Swiss white mice
[6] = i.v., end of the 14 day follow-up period

Compound | finding at the site of injection [1] | activity against Gram-positive bacteria [2] | activity in the in vivo system [3] | acute toxicity [1] | macroscopic examination on dissection [4, 6] | LD₅₀ ([4]; intravenous injection (i.v.)) | macroscopic examination on dissection [5, 6] | LD₅₀ ([5]; intravenous injection (i.v.), 20160 min)
CN[C@H](CC(C)C)C(=O)N[C@H]1C(=O)N[C@@H](CC(N)=O)C(=O)N[C@H]2C(=O)N[C@H]3C(=O)N[C@H](C(=O)N[C@H](C(=O)O)c4cc(O)cc(O)c4-c4cc3ccc4O)[C@H](O)c3ccc(c(Cl)c3)Oc3cc2cc(c3O[C@@H]2O[C@H](CO)[C@@H](O)[C@H](O)[C@H]2O[C@H]2C[C@](C)(N)[C@H](O)[C@H](C)O2)Oc2ccc(cc2Cl)[C@H]1O [vancomycin, reference compound] | tissue necrosis was seen at the site of injection | – | – | – | – | – | – | –
Decaplanin | no abnormalities were observed | displays activity | good activity | no acute toxicity was observed | no morphological changes | greater than 2,500 mg/kg | no morphological changes | greater than 3000 mg/kg

Source: EP0356894A1, “A novel glycopeptide antibiotic Decaplanin, a process for its production and its use as medicament” (priority 1988, dated 1990)
